In patent US20110158980A1, “METHODS TO TREAT AND SCREEN FOR AGENTS TO TREAT OBESITY” (TRUSTEES OF TUFTS COLLEGE, priority 2008, published 2011):

System: 3T3-L1 adipocytes
Assay: Oxygen uptake rate by fiber-optic microsensor
Type: cell-based
Settings: phenylacetate at the higher concentration (10 mM); day 12 post-induction; FIG. 2F
Description: The dissolved oxygen in the culture medium was measured using a needle-type fiber-optic microsensor (MicroxTX3, Presens, Regensburg, Germany). The concentration data were related to the oxygen uptake rate (OUR) using the following diffusion-reaction model:
where c0 and hb are, respectively, the oxygen concentration at medium surface and height of the medium in the culture well. The bottom of the culture plate (and cell monolayer) is at z=−hb. Integrating equation (1) and applying the boundary conditions we obtain: […]
where hm and cm are, respectively, the distance between the probe and the medium surface and the measured oxygen concentration in the medium at the probe depth. The oxygen uptake rate was calculated by dividing the flux JO2 by the cell density. The measured oxygen uptake rate was used for relative comparisons between the treatment groups and not used for MFA in order to independently confirm the calculated oxygen uptake rate.

## O=C(O)Cc1ccccc1 [phenylacetate]
  Reduction of oxygen consumption: 25%
